Where two headings read alike, the source gives them in different places.
Tests used:
[1] = Fluorescence quantum yield, comparative method; assay type: physicochemical; settings: in DMF; ZnPc as reference
Experimental: The fluorescence quantum yields (ΦF) were determined by a comparative method with ZnPc as the reference (ΦF = 0.32 in THF). The ΦF values were calculated using the following formula: ϕFS=ϕFR(F^S/F^R)(1−10^−A^R/1−10^−A^S)(η^S/η^R)^2 where F is the integrated area under the emission spectrum and A is the absorbance at the excitation wavelength. Superscripts R and S indicate the reference and sample, respectively. η stands for the refractive index of the solvent. Absorption in the Q-band was kept below 0.05 to eliminate the inner filter effect. Excitation wavelengths were the same as those used for emission spectra (see above). The emission wavelengths were set to their emission maxima to avoid exceeding the detector limit with stimated error ± 15%.

[2] = Absorption and fluorescence emission spectra in DMF; assay type: physicochemical; settings: for ε, extinction coefficient / λA, absorption maximum in the Q-band / λF, fluorescence emission maximum: in DMF
Experimental: An absorption spectrum of 2.475 mL of solvent (water, DMF, or PBS) was taken (i.e., absorption spectrum of baseline); then, 25 μL of stock solution was added to reach the final concentration of 1 μM in the cuvette, and the absorption and emission spectra were taken. Baseline of the solvent was subtracted from the obtained absorption spectrum to get the final absorption spectrum of the sample.

[3] = target: bovine serum albumin (BSA) (Bos taurus, UniProt P02769); test: Interaction with bovine serum albumin (absorption and emission spectra in PBS); assay type: binding; settings: 1 μM Pc in PBS, BSA 17.5, 35 and 100 μM
[4] = Quantum yield of singlet oxygen production, comparative method with DPBF scavenger; assay type: physicochemical; settings: in DMF, ZnPc as reference
Experimental: Eight μL of the 100 μM stock solution of the dye in DMF (or DMF + water or water; see above) was added. A xenon lamp (100 W, ozone free XE DC short arc lamp, New port) was used to irradiate the sample while stirring. The incident light was filtered through a water filter (6 cm) and cut off filter OG530 eliminating heat and light under 523 nm, respectively. […] The decrease of DPBF in solution with irradiation time was monitored at 415 nm. The values of ΦΔ of the dyes were calculated by the following equation: φΔS=φΔ[…] is the slope of the plot of the dependence of ln([…] 0 and A t being the absorbances of the DPBF at 415 nm before irradiation and after irradiation time t, respectively. I aT is the total amount of light absorbed by the dye sample. Superscripts R and S indicate the reference and sample, respectively. I aT is calculated as a sum of intensities of the absorbed light I a at wavelengths from 523 to 850 nm (step 0.5 nm). Light under 523 nm is completely filtered by an OG530 filter, and light above 850 nm is not absorbed by the studied dye sample. I a at a given wavelength is calculated using Beer-Lambert'[…]) where I 0 is transmittance of the filter at the given wavelength and A is the absorbance of the dye at this wavelength. All experiments were performed three times, and the data presented is the mean value of the three obtained results with estimated error ± 10%.

[5] = system: HeLa (human cervical carcinoma); settings: ref number not given, cited from earlier work
[6] = Log P, partition between n-octanol and PBS; assay type: physicochemical
Experimental: 400 μL portion of n-octanol and 400 μL of PBS buffer were mixed in a plastic Eppendorf vial. Then, 20 μL of the 100 μM stock solution of the sample (see above) was added to this mixture, vortexed for 5 min at rt, and then centrifuged for 10 min (10 000 rpm, rt). 50 μL of each of these layers was taken into 2.5 mL of DMF in a quartz cuvette, and their emission spectra (excitation wavelengths in Table ) were recorded. The log P value was then computed using the area under the curve of the emission spectra of n-octanol (F oct) and PBS buffer (F PBS) layers as follows: logP=log(Foct/FPBS) Triplicate measurements were performed, and the data reported are the mean of the obtained results.

[7] = Fluorescence lifetime in DMF; assay type: physicochemical
From the text: 1 Photophysical Data of Investigated Derivatives in DMF ^a | column: τF1/ns; τF2/ns

[8] = system: MCF-7 (human breast adenocarcinoma); test: Photodynamic activity (phototoxicity, neutral red uptake) on MCF-7; assay type: cell-based; settings: 12 h incubation, Xe-lamp 15 min, λ > 570 nm, 11.2 J/cm^2; mean ± SD; t.w. = this work
Experimental: (§1) Detailed in vitro studies involving subcellular localization and determination of the EC50 in three different cell lines (human cervical carcinoma–HeLa, human breast adenocarcinoma–MCF-7, and human skin melanoma–SK-MEL-28) were performed. A broadband light source (ozone-free 450 W Xe-lamp, Newport) equipped with the long-pass filter Schott OG570 was used (12.4 mW/cm^2, 15 min, 11.2 J/cm^2).
(§2) For the cytotoxicity experiments (phototoxicity), cells were seeded at 100 μL per well into 96-well plates (TPP, Switzerland) at a density of 7.5 × 10^3 (HeLa) or 1.0 × 10^4 (MCF-7 and SK-MEL-28) cells per well. Cells were left to grow for 24 h (until they reached confluency) in a controlled environment of a CO2 incubator (37 °C, 5% CO2 atmosphere, constant high humidity). Subsequently, studied compounds were added in a wide concentration range and incubated with the cells for 12 h. Cells were washed; fresh cell culture medium was added, and the cells were irradiated using a 450 W Xe lamp (Newport, USA). The lamp was equipped with a long pass filter (Newport OG570) and an 8 cm water filter (λ > 570 nm, 12.4 mW/cm^2, 15 min, 11.2 J/cm^2). Cellular viability was assessed after an additional 24 h by the neutral red (NR; Sigma, Merck, USA) uptake assay. At least three independent experiments, each in triplicate, were performed. The soluble NR was measured at λ = 540 nm using a Tecan Infinite 200 M plate reader (Tecan, Austria). The viability of each experimental group was expressed as the percentage of the untreated cells (100% viability) after subtraction of the signal from cells treated with a lethal dose of hydrogen peroxide (0% viability). […] EC50 values were calculated, and graphs were created by using GraphPad Prism 10.3.1 (Graph Pad software, USA).

[9] = system: SK-MEL-28 (human skin melanoma); test: Photodynamic activity (phototoxicity, neutral red uptake) on SK-MEL-28; assay type: cell-based; settings: 12 h incubation, Xe-lamp 15 min, λ > 570 nm, 11.2 J/cm^2; mean ± SD; t.w. = this work
Experimental: as §1, §2

[10] = partition coefficient between 1-octanol and PBS

bovine serum albumin (BSA), sequence (P02769 25-607): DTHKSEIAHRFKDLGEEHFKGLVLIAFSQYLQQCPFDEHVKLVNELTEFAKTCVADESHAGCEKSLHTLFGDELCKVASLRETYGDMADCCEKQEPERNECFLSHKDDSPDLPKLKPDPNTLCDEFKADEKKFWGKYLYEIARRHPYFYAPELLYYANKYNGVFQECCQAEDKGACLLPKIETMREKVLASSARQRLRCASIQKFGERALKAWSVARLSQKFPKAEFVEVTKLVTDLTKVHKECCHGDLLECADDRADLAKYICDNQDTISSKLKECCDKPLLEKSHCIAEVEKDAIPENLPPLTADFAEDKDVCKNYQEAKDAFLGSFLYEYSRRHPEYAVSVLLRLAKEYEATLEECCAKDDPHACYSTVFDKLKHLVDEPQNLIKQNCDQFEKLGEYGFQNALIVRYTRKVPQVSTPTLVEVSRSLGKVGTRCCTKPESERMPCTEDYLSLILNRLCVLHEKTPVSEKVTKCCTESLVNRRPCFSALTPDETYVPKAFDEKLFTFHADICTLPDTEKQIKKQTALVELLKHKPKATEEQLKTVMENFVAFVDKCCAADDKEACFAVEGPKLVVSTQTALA

| SMILES | ΦF, fluorescence quantum yield [1] | ε, extinction coefficient [2] | λA, absorption maximum in the Q-band [2] [nm] | λF, fluorescence emission maximum [2] [nm] | Interaction with BSA: disaggregation/monomerization and changes in absorption and fluorescence emission spectra [3] | quenching of excited states upon BSA addition (decrease in Q-band maximum and fluorescence intensity) [3] | ΦΔ, quantum yield of singlet oxygen production [4] | EC50 ([5]; 12 h incubation, Xe-lamp 15 min, λ > 570 nm, 11.2 J/cm^2, mean ± SD, determined previously under the same conditions at the same workplace and published, read-out: EC50 (nM) HeLa) [nM] | Log P [6, 10] | τF1, fluorescence lifetime (relative amplitude in brackets) [7] | EC50 [8] [nM] | EC50 [9] [nM] | EC50 ([5]; same irradiation conditions, previously published per Table 2, read-out: EC50 (HeLa)) [nM] | τF2, fluorescence lifetime (relative amplitude in brackets) [7] | blueshift of the Q-band vs corresponding Pc analogue ([2]; pyrazine analogs vs A4Zn and N6Zn, DMF) [nm] | Log P [6] |
| --- | --- | --- | --- | --- | --- | --- | --- | --- | --- | --- | --- | --- | --- | --- | --- | --- |
| O=C([O-])c1cc(C(=O)[O-])cc(-c2nc3c(nc2-c2cc(C(=O)[O-])cc(C(=O)[O-])c2)C2=Nc4c5nc(-c6cc(C(=O)[O-])cc(C(=O)[O-])c6)c(-c6cc(C(=O)[O-])cc(C(=O)[O-])c6)nc5c5[n]4[Zn][n]4c(c6nc(-c7cc(C(=O)[O-])cc(C(=O)[O-])c7)c(-c7cc(C(=O)[O-])cc(C(=O)[O-])c7)nc6c4=NC4=NC(=N5)c5nc(-c6cc(C(=O)[O-])cc(C(=O)[O-])c6)c(-c6cc(C(=O)[O-])cc(C(=O)[O-])c6)nc54)=NC3=N2)c1.[Na+].[Na+].[Na+].[Na+].[Na+].[Na+].[Na+].[Na+].[Na+].[Na+].[Na+].[Na+].[Na+].[Na+].[Na+].[Na+] [A5Zn] | 0.03 | 138 740 M^–1cm^–1 | 659 | 675 | slight bathochromic shift in the Q-band accompanied by partial quenching of the excited states | significant | 0.21 | 5700 ± 1100 | –3.27 | – | – | – | – | – | – | – |
| O=S(=O)([O-])c1ccc(Oc2ccc3c(c2)C2=Cc4c5ccc(Oc6ccc(S(=O)(=O)[O-])c7cccnc67)cc5c5[n]4[Zn][n]4c(c6ccc(Oc7ccc(S(=O)(=O)[O-])c8cccnc78)cc6c4=CC3=N2)=CC2=NC(=C5)c3ccc(Oc4ccc(S(=O)(=O)[O-])c5cccnc45)cc32)c2ncccc12.[Na+].[Na+].[Na+].[Na+] [A6Zn] | 0.28 | 122 420 M^–1cm^–1 | 681 | 692 | partial | – | 0.58 | – | –2.89 | 3.14 ns | – | – | – | – | – | – |
| O=S(=O)([O-])c1ccc(Oc2cccc3c2C2=Cc4c5cccc(Oc6ccc(S(=O)(=O)[O-])c7cccnc67)c5c5[n]4[Zn][n]4c(c6cccc(Oc7ccc(S(=O)(=O)[O-])c8cccnc78)c6c4=CC3=N2)=CC2=NC(=C5)c3cccc(Oc4ccc(S(=O)(=O)[O-])c5cccnc45)c32)c2ncccc12.[Na+].[Na+].[Na+].[Na+] [A8Zn] | 0.26 | 197 610 M^–1cm^–1 | 696 | 708 | complete | – | 0.69 | – | –3.64 | – | 2470 ± 810 | 1200 ± 280 | – | – | – | – |
| C[n+]1cccc(Oc2ccc3c(c2)C2=NC3=Nc3c4cc(Oc5ccc[n+](C)c5)ccc4c4[n]3[Zn][n]3c(c5ccc(Oc6ccc[n+](C)c6)cc5c3=NC3=NC(=N4)c4cc(Oc5ccc[n+](C)c5)ccc43)=N2)c1 [C5Zn] | – | – | – | – | slight decrease in the absorption band (without a shift in the spectrum) but was accompanied by a slight increase in the fluorescence intensity | – | – | – | – | – | – | – | – | – | – | – |
| Cc1cc(OCc2cn(CCOCCOCCO)nn2)c(Oc2cc3c(cc2Oc2c(OCc4cn(CCOCCOCCO)nn4)cc(C)cc2OCc2cn(CCOCCOCCO)nn2)C2=Nc4c5cc(Oc6c(OCc7cn(CCOCCOCCO)nn7)cc(C)cc6OCc6cn(CCOCCOCCO)nn6)c(Oc6c(OCc7cn(CCOCCOCCO)nn7)cc(C)cc6OCc6cn(CCOCCOCCO)nn6)cc5c5[n]4[Zn][n]4c(c6cc(Oc7c(OCc8cn(CCOCCOCCO)nn8)cc(C)cc7OCc7cn(CCOCCOCCO)nn7)c(Oc7c(OCc8cn(CCOCCOCCO)nn8)cc(C)cc7OCc7cn(CCOCCOCCO)nn7)cc6c4=NC4=NC(=N5)c5cc(Oc6c(OCc7cn(CCOCCOCCO)nn7)cc(C)cc6OCc6cn(CCOCCOCCO)nn6)c(Oc6c(OCc7cn(CCOCCOCCO)nn7)cc(C)cc6OCc6cn(CCOCCOCCO)nn6)cc54)=NC3=N2)c(OCc2cn(CCOCCOCCO)nn2)c1 [N6Zn] | 0.26 | 237 520 M^–1cm^–1 | 681 | 690 | – | – | 0.46 | – | – | 1.04 (3%) ns | – | – | 69700 | 3.17 (97%) ns | – | – |
| Cc1cc(OCc2cn(CCOCCOCCO)nn2)c(Oc2nc3c(nc2Oc2c(OCc4cn(CCOCCOCCO)nn4)cc(C)cc2OCc2cn(CCOCCOCCO)nn2)C2=Nc4c5nc(Oc6c(OCc7cn(CCOCCOCCO)nn7)cc(C)cc6OCc6cn(CCOCCOCCO)nn6)c(Oc6c(OCc7cn(CCOCCOCCO)nn7)cc(C)cc6OCc6cn(CCOCCOCCO)nn6)nc5c5[n]4[Zn][n]4c(c6nc(Oc7c(OCc8cn(CCOCCOCCO)nn8)cc(C)cc7OCc7cn(CCOCCOCCO)nn7)c(Oc7c(OCc8cn(CCOCCOCCO)nn8)cc(C)cc7OCc7cn(CCOCCOCCO)nn7)nc6c4=NC4=NC(=N5)c5nc(Oc6c(OCc7cn(CCOCCOCCO)nn7)cc(C)cc6OCc6cn(CCOCCOCCO)nn6)c(Oc6c(OCc7cn(CCOCCOCCO)nn7)cc(C)cc6OCc6cn(CCOCCOCCO)nn6)nc54)=NC3=N2)c(OCc2cn(CCOCCOCCO)nn2)c1 [N7Zn] | 0.18 | 195 490 M^–1cm^–1 | 629 | 641 | – | – | 0.58 | – | – | 0.74 (5%) ns | – | – | – | 2.45 (95%) ns | 35 | –1.60 |
